Test results: US9533973B2, “Allosteric modulators of 5-hydroxytryptamine 2C receptor (5-HT2CR)” (THE BOARD OF REGENTS OF THE UNIVERSITY OF TEXAS SYSTEM, priority 2011, dated 2017)

Assays:
rats = assay: Spontaneous locomotor activity (open field horizontal ambulation); type: in vivo, rat
Protocol: Locomotor activity was monitored and quantified under low light conditions using a modified open field activity system (San Diego Instruments, San Diego, Calif.) according to previous publications with minor modifications (Cunningham et al., 2011, Neuropharmacology 61:513-523). Clear Plexiglass chambers (40×40×40 cm) were surrounded by a 4×4 photobeam matrix positioned 4 cm from the chamber floor. Consecutive photobeam breaks within the 16×16 cm of the activity monitor were recorded as central ambulation. Peripheral ambulation was counted as consecutive beam breaks in the surrounding perimeter. Central and peripheral ambulations were summed to provide a measure of total horizontal ambulation. […] The effects of CYD-1-78-2 and CYD-1-79 alone or in combination with the selective 5-HT2CR agonist WAY163909 were established in a within-subjects design. To control for order effects, drug doses and vehicles were administered in random sequence to individual rats across sessions such that all rats received all treatment combinations and were tested every three days. Rats received vehicle (saline, 1 mL/kg, i.p.), CYD-1-78-2 (0.5, 1, or 3 mg/kg, i.p.) or the combination of CYD-1-78-2 (0.5 mg/kg, i.p.) plus WAY163909 (1 mg/kg, i.p.) immediately prior to placement in activity monitors on each test day; locomotor activity was assessed for 90 min. In a separate cohort of rats, rats received vehicle (saline, 1 mL/kg, i.p.), CYD-1-79 (0.5, 1, or 5 mg/kg, i.p.) or the combination of CYD-1-79 (0.5 mg/kg, i.p.) plus WAY163909 (1 mg/kg, i.p.) immediately prior to placement in activity monitors on each test day; locomotor activity was assessed for 90 min. The combination of CYD-1-78-2 plus WAY163909 or CYD-1-79 plus WAY163909 was administered simultaneously.
Locomotor activity data are presented as mean total horizontal ambulation (±SEM) over the entire 90-min session or within 5 min time bins across the session. A two-way ANOVA for repeated measures for the factors of treatment and time was conducted. The main effect of treatment on total horizontal ambulation was analyzed with a repeated measures, one-way analysis of variance using the GLM procedure (SAS for Windows). Subsequent a priori comparisons between means for total horizontal ambulation were made using the Dunnett's procedure, with vehicle (saline) as the comparator.

5-HT2AR = target: T1, 5-HT2AR (Homo sapiens, UniProt P28223); assay: 5-HT induced intracellular calcium (Cai++) release assay in live 5-HT2AR-CHO cells; type: cell-based; conditions: compound alone or in the presence of 5-HT
T1 construct: expressed in transfected cells; host or cells: CHO cells (5-HT2AR—CHO)
T1 sequence (P28223 whole entry): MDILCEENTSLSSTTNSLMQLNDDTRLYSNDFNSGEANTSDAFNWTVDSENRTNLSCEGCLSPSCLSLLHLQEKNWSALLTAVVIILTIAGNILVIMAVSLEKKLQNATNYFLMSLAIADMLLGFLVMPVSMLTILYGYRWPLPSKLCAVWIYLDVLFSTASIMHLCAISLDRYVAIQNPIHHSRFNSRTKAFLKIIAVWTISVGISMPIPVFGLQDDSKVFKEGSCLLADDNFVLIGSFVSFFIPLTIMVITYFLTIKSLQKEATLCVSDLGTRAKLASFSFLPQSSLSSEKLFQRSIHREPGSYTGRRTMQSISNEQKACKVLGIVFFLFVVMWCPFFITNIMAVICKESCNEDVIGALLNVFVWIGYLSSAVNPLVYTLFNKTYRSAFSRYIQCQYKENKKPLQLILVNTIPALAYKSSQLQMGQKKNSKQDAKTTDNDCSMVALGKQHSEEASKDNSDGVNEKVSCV
Protocol: Selected results for the biological characterization of the synthesized compounds can be found in Ding et al., ACS Chem. Neurosci., 3, 538-545, 2012, and also described herein. The biological activity is assessed using an intracellular calcium (Cai^++) release assay. The best-characterized intracellular signaling pathway of the 5-HT2CR is the activation of phospholipase C (PLCβ) via Gαq/11 proteins and the production of diacylglycerol (DAG) and inositol-1,4,5-trisphosphate (IP3), leading to increased Cai^++ release from intracellular stores (Berg et al., Neuropharmacology 55, 969-76, 2008). Functional characterization of our synthetic PNU-69176E (CYD-1-78-2) and its diastereomer CYD-1-78-1 was determined by utilizing an Cai^++ release assay in live cells in which Cai^++ levels can be regarded as an outcome measure of activation of the 5-HT2CR signaling pathway (Berg et al., Neuropharmacology 55, 969-76, 2008). […]
Changes in Cai^++ levels were determined using the calcium sensitive dye Calcium 4 (FLIPR No-wash kit, Molecular Devices, Sunnyvale, Calif., part #R8142). […] Fluorescence (λex=485 nm, λem=525 nm) was measured with a FlexStation3 (Molecular Devices). […] Addition of 20 μL of 5× concentrated tested compound occurred at 17 sec and fluorescence was recorded every 1.7 sec for 90 sec to determine any innate agonist activity. […]

**Q.** What does the source list for CCCCCCCCCCC[C@@H]1CCN[C@H](C(=O)N[C@@H]([C@H]2O[C@H](SC)[C@H](O)[C@@H](O)[C@H]2O)[C@H](C)Cl)C1.Cl [CYD-1-78-2]?
**A.** effect on spontaneous locomotor activity (rats; 0.5 mg/kg alone): ineffective; total horizontal ambulation versus saline, combination with WAY163909 (rats; 0.5 mg/kg i.p. plus WAY163909 1 mg/kg i.p., 90-min session, p<0.05): significantly reduces; horizontal ambulation versus saline in 5-min intervals, combination with WAY163909 (rats; 0.5 mg/kg i.p. plus WAY163909 1 mg/kg i.p., CYD-1-78-2: interval 1 and 2, CYD-1-79: interval 2, p<0.05): significantly reduces; horizontal ambulation versus saline in 5-min intervals (rats; 1 mg/kg i.p., at interval 4, 5 and 6, p<0.05): significantly reduces; total horizontal ambulation summed across the 90-min test session versus saline (rats; 1 mg/kg i.p., p<0.05): significantly reduces; horizontal ambulation versus saline in 5-min intervals (rats; 3 mg/kg i.p., at interval 1, 2, 3 and 11, p<0.05): significantly reduces; total horizontal ambulation summed across the 90-min test session versus saline (rats; 3 mg/kg i.p., p<0.05): significantly reduces; total ambulations (rats; 1 and 3 mg/kg, i.p., unhabituated animals, 90 minutes): dose-dependently decreases; selective 5-HT2CR agonist-mediated suppression of spontaneous locomotor activity (rats; with WAY163909): augment; alteration of Cai++ release in 5-HT2AR-CHO cells (5-HT2AR): neither
